Experimental data reported in ChEMBL document CHEMBL1156014, “Synthesis of antibacterial pseudopeptides with less hemolytic activity from a cytotoxic peptide and their pH-dependent activity” (Bioorg Med Chem Lett, 2009).
In brackets after ≈: the same amount, converted by molar mass. Where a SMILES comes first, the peptide text is derived from it. The star is where a group is joined. X2 = CC(C)C[C@H](NC[C@H](CCCCN)N*)C(=O)N[C@@H](CC(C)C)C(=O)N[C@@H](CCCCN)C(N)=O

Legend:
[1] = test system: Micrococcus luteus; assay: Antibacterial activity against Micrococcus luteus ATCC 9341 at pH 8.4; type: functional
[2] = test system: Pseudomonas aeruginosa; assay: Antibacterial activity against Pseudomonas aeruginosa ATCC 9027 at pH 8.4; type: functional
[3] = test system: Staphylococcus aureus; assay: Antibacterial activity against Staphylococcus aureus ATCC 6538 at pH 8.4; type: functional
[4] = Toxicity in human erythrocytes assessed as hemolytic activity up to 200 ug/ml at pH 7.4 after 1 hr; type: cell-based; conditions: erythrocyte, pH 7.4, 1 h
[5] = test system: Escherichia coli; assay: Antibacterial activity against Escherichia coli ATCC 25922 at pH 8.4; type: functional
[6] = Permeability across Escherichia coli large unilamellar vesicles assessed as calcein entrapped leakage from phosphatidylglycerol/phosphatidylcholine at pH 8.4; type: ADME
[7] = test system: Micrococcus luteus; assay: Antibacterial activity against Micrococcus luteus ATCC 9341 at pH 7.4; type: functional
[8] = test system: Escherichia coli; assay: Antibacterial activity against Escherichia coli ATCC 25922 at pH 7.4; type: functional
[9] = Permeability across Escherichia coli large unilamellar vesicles assessed as calcein entrapped leakage from phosphatidylglycerol/phosphatidylcholine at pH 7.4; type: ADME
[10] = test system: Staphylococcus aureus; assay: Antibacterial activity against Staphylococcus aureus ATCC 6538 at pH 7.4; type: functional
[11] = test system: Pseudomonas aeruginosa; assay: Antibacterial activity against Pseudomonas aeruginosa ATCC 9027 at pH 7.4; type: functional
[12] = Permeability across Escherichia coli large unilamellar vesicles assessed as calcein entrapped leakage from phosphatidylglycerol/phosphatidylcholine at 7.5 uM at pH 7.4; type: ADME; conditions: pH 7.4, 7.5 µM
[13] = Permeability across Escherichia coli large unilamellar vesicles assessed as calcein entrapped leakage from phosphatidylglycerol/phosphatidylcholine at 15 uM at pH 8.4; type: ADME; conditions: pH 8.4, 15 µM

MIC [1] [µg/mL]	MIC [2] [µg/mL]	MIC [3] [µg/mL]	MIC [5] [µg/mL]	Activity [6]	MIC [7] [µg/mL]	MIC [8] [µg/mL]	Activity [9]	MIC [10] [µg/mL]	MIC [11] [µg/mL]	Activity [12] [%]	Activity [13] [%]	Compound	Activity [4]
6.25 (≈ 4.07 µM)	50 (≈ 32.5 µM)	12.5 (≈ 8.14 µM)	25 (≈ 16.3 µM)	Dose-dependent effect	6.25 (≈ 4.07 µM)	12.5 (≈ 8.14 µM)	Dose-dependent effect	6.25 (≈ 4.07 µM)	50 (≈ 32.5 µM)			CC(=O)N[C@@H](CCCCN)C(=O)N[C@@H](CC(C)C)C(=O)N[C@@H](CC(C)C)C(=O)N[C@@H](CC(C)C)C(=O)N[C@@H](CCCCN)C(=O)N[C@@H](CC(C)C)C(=O)N[C@@H](Cc1c[nH]c2ccccc12)C(=O)N[C@@H](CC(C)C)C(=O)N[C@@H](CCCCN)CN[C@@H](CC(C)C)C(=O)N[C@@H](CC(C)C)C(=O)N[C@@H](CCCCN)C(N)=O (Ac-KLLLKLWL-X2)	Not Active
6.25	50	25	50	Dose-dependent effect	6.25	12.5	Dose-dependent effect	6.25	50	90	80	Ac-KLLLKLWLKLLK-NH2	
